A short description of data set [1]: Ability of the buffer to accept aqueous ozone (kiosk sensors and instrumentation). The following applies: buffer at approximate pH 5.5 to 6, ozonated with the CCT 1.0 kiosk. Type of data set: physicochemical. An excerpt: Additionally, not all buffering compounds are suitable or effective for use as additives. […] The MES and ascorbate buffers were unable to accommodate the addition of aqueous ozone, showing no ozone in the resulting solution according to the kiosk sensors and instrumentation.

The subject of data set [2] is Staphylococcus aureus subspecies aureus Rosenbach, strain FDA 209. The data set can be described thus: AOAC method (961.02) spray disinfection of glass coupons, 10 min, turbidity (+/-) in Letheen broth. Type of data set: cell-based. Conditions: for Percent kill / Number− / Number+: 10 min; for Number−: negative coupons; for Number+: positive coupons; for coupons negative: range-finding. The source says:
A freeze-dried stock of Staphylococcus (Staphylococcus aureus subspecies aureus Rosenbach, strain FDA 209), as specified by the AOAC method (961.02), was obtained from ATCC. After rehydration and growth in appropriate culture medium (BD Tryptic soy broth lot #4335611), both plated stocks and stocks frozen in glycerol were created. Staphylococcus was quantified for absorbance at 600 nm versus colony forming units (CFU) by serially diluting inoculum and reading absorbance followed by plating of dilutions onto agar plates. Prior to aqueous ozone testing, growth medium was inoculated and incubated in a shaker incubator (New Brunswick Scientific, serial #890615130) at 37° C. for 24 hours and then transfer cultured two additional times with a final incubation of 48 hours. Twenty microliters of the resulting inoculum was used to coat glass slides (Fisher), also known as test squares or coupons, with 10^5 to 10^7 cells, as calculated from the standard curve generated from the absorbance qualification data, and allowed to dry in a 37° C. incubator for 40 minutes following ASTM E1153-14. After drying, treated coupons were sequentially treated with 1.5 or 4 ppm aqueous ozone alone, 1.5 or 4 ppm aqueous ozone combined with a predetermined dilution of PAA, or PAA alone, then incubated for 10 minutes at room temperature. Additionally, immediately before and after testing three inoculated untreated coupons were place in labeled 50 ml conical tubes containing 20 ml of Letheen broth, vortexed, pooled, and plated to provide carrier counts. The mean log 10 density (LD) of the carrier counts for S. aureus must be between 5.0 and 6.5 in order for the test to be valid in this method.
Briefly, aqueous ozone was generated using the free standing CCT 1.0 unit (mounted in a kiosk enclosure) at a concentration of 1.5 ppm or 4 ppm. The water source utilized by the CCT 1.0 was clean, cold, softened Omaha municipal tap water. […] Aqueous ozone was sterile collected in a biological safety cabinet before and used immediately. Treatments were applied to the appropriate freshly prepared coupons contained within labeled petri dishes using a sprayer provided by CleanCore.
Following the testing period, coupons were removed from the individual petri dishes and transferred to corresponding labeled 50 ml conical tubes containing 20 ml of Letheen broth. One sterile un-inoculated coupon and one inoculated untreated coupon were also transferred to separate labeled 50 ml conical tubes containing 20 ml of Letheen broth in order to provide sterility and viability controls, respectively. All testing vials were shaken then incubated at 36±1° C. for 48±2 hours, then visually assessed for turbidity(+). Positive sample vials were plated to determine colony morphology similarity to test organism. All test plates were plated with 0.2 ml spread onto 2 replicates using a glass spreader and a Bel-Art inoculating turntable. Results of testing were analyzed for statistical significance in SPSS using a McNemar exact test for dichotomous data, with a significance level of α=0.05.

The conditions of data set [3]: cited from earlier work.
Data set [4] relates to Campylobacter jejuni. The data set can be described thus: Antimicrobial spray on inoculated chicken carcasses, rinsate plate counts. Format: cell-based. The protocol:
(§1) Briefly, chicken carcasses (70 whole hen carcasses for 7 treatments and 10 replications) were inoculated with 400 mL of a cocktail containing Salmonella Typhimurium (UK-1), E. coli (J53), and Campylobacter jejuni (3×10^7 CFU/mL) and allowed to adhere for 60 minutes at 4° C. for a final concentration of 10^5-10^6 CFU/g. Chicken carcasses then received no treatment (negative control) or were then treated by spraying (4×5 seconds) with tap water, tap water with 10 ppm ozone, tap water with PAA (50 ppm), tap water with PAA (500 ppm), tap water with 10 ppm ozone and PAA (500 ppm), or tap water with 10 ppm ozone and PAA (50 ppm). Further, the ambient PAA was measured using a PAA specific sensor during treatment. After treatment, chicken carcasses were rinsed in 400 mL of neutralizing buffered peptone water (20.0 g of buffered peptone, 7 g of refined soy lecithin or equivalent, 1.0 g of sodium thiosulfate, 12.5 g of sodium bicarbonate, per 1 liter of deionized water) for 2 minutes with agitation. Subsequently, the rinsate was serially diluted, spread plated on Xylose Lysine Deoxycholate (XLD) and Blood Free Campylobacter Agar (BFCA; modified Charcoal-Cefoperazone-Deoxycholate agar (mCCDA)), and incubated aerobically at 37° C. for 24 hours and microaerophilic at 42° C. for 48 hours, respectively. Log-transformed counts were analyzed using one-way ANOVA in JMP 14.0. Means were separated using Tukey's HSD when P≤0.05.

Data set [5] concerns Salmonella Typhimurium (UK-1). The data set is described as above. Type of data set: cell-based. The following applies: spray 4x5 seconds; 500 ppm PAA with or without 10 ppm ozone. The method, then: as §1
For data set [6] the following is noted: humans, after exposure; cited from earlier work.
Data set [7] concerns S. aureus subspecies aureus Rosenbach, strain FDA 209. The data set can be described thus: ASTM E1153-14 glass coupon test, 5 min treatment, CFU plate counts. Type of data set: cell-based, Staphylococcus aureus.
Text: A freeze-dried stock of Staphylococcus (S. aureus subspecies aureus Rosenbach, strain FDA 209) was obtained from American Type Culture Collection (ATCC, Manassas, Va.). After rehydration and growth in appropriate culture medium (Staphylococcus: BD Tryptic soy broth lot #4335611), both plated stocks and stocks frozen in glycerol were created. Staphylococcus was qualified for absorbance at 600 nm versus colony forming units (CFU) by serially diluting inoculum and reading absorbance followed by plating of dilutions onto agar plates. […] Twenty microliters of the resulting inoculum were used to coat glass slides (Fisher), also known as test squares or coupons with 10^5 to 10^7 cells, as calculated from the standard curve generated from the absorbance qualification data, and allowed to dry in a 37° C. incubator for 40 minutes following ASTM E1153-14 (www.astm.org/Standards/E1153.htm). […]
After incubation for 5 minutes following ASTM E1153-14, the supernatant in the vial was sampled and placed on test agar plates at a volume of 0.2 ml. […] Colony forming units (CFU) for each plate were counted, recorded and averaged for each sample. […] Sample CFUs were analyzed for statistical significance using the Mann Whitney U test with significance level α=0.05. […]
Data set [8] relates to Salmonella enterica. The data set can be described thus: Test coupons coated with Salmonella enterica, CFU reduction versus water. Format: cell-based. Conditions: 0.05M acetate buffer with or without 1.5 ppm aqueous ozone.
Data set [9] deals with Klebsiella. The data set can be described thus: Test coupons coated with Klebsiella, CFU reduction versus water. Conditions: acetate buffer with or without 1.5 ppm aqueous ozone.
Where [10] appears, read: Table 16A, 1.5 ppm ozone and/or 15 ppm PAA.
[11] abbreviates: Table 16B, 4 ppm ozone and/or 15 ppm PAA.
The mark [12] stands for this setting: Table 16C, 1.5 ppm ozone and/or 10 ppm PAA.
The mark [13] stands for this setting: Table 16D, 1.5 ppm ozone and/or 20 ppm PAA, three experiments.

As for `O=C1O[C@H]([C@@H](O)CO)C(O)=C1O` [Ascorbic acid], the “ozone in the resulting buffered solution” value in data set [1] is listed as “no ozone”.
For `O=C(O)CC(O)(CC(=O)O)C(=O)O` [Citric acid], the “ozone in the resulting buffered solution” value in data set [1] is “did accept ozonation”.
On to `O=S(=O)(O)CCN1CCOCC1` [MES, 2-(N-morpholino) ethane sulfonic acid], for which the “ozone in the resulting buffered solution” value in [1] was “no ozone”.
`O=[O+][O-]` [aqueous ozone, ozone]: the Percent kill in [2] (setting [10]), in data set [2] (setting [11]), in data set [2] (setting [12]) and in [2] (setting [13]) was 0.0% in each case. In addition, the “Number−” value in data set [2] (setting [10]), in data set [2] (setting [11]), in [2] (setting [12]) and in [2] (setting [13]) was 0 each time. In addition, the “Number+” value was 30 in data set [2] (setting [10]), 30 in [2] (setting [11]), 30 in data set [2] (setting [12]) and 90 in data set [2] (setting [13]).
Regarding `O=C(O)C(=O)O` [Oxalic acid], the “ozone in the resulting buffered solution” value in data set [1] was “did accept ozonation”. Besides, the “pKa (second value)” value in data set [3] was 4.40.
In the case of `CC(=O)OO` [PAA, peracetic acid], the coupons negative was 3 out of 10 coupons in data set [2] (PAA 10 ppm in sterile water), 6 out of 10 coupons in [2] (PAA 25 ppm in sterile water), 9 out of 10 coupons in [2] (PAA 50 ppm in sterile water) and 9 out of 10 coupons in data set [2] (PAA 100 ppm in sterile water). In addition, the Percent kill in data set [2] (setting [10]) worked out at 76.7%; in [2] (setting [11]) it was 73.3%; in [2] (setting [12]) it was 6.7%; in data set [2] (setting [13]), 87.8%. Also, the “Number−” value stood at 23 in data set [2] (setting [10]), 22 in data set [2] (setting [11]), 2 in data set [2] (setting [12]) and 79 in data set [2] (setting [13]). The “Number+” value was found to be 7 in data set [2] (setting [10]), 8 in data set [2] (setting [11]), 28 in data set [2] (setting [12]) and 11 in data set [2] (setting [13]). The “log CFU per gram of C. jejuni on carcasses” value in [4] (spray 4x5 seconds, 500 ppm PAA with or without 10 ppm ozone) came out at 4.81 log CFU/g. The “effect on Campylobacter compared to untreated controls” value in data set [4] (spray on chicken carcasses, P≤0.05) is “significantly reduced”. In data set [5], the “log CFU per gram of Salmonella on carcasses” value is reported as 5.86 log CFU/g. The “PAA level that can cause irritation to the upper respiratory tract” value in [6] is given as 5 ppm.
As to `CC(=O)O` [Acetic acid], the “log reduction of S. aureus CFU post treatment, compared to a water control” value in [7] (0.05M acetate buffer with or without 1.5 ppm aqueous ozone) is “less than 1 log”. Also, in data set [7] (acetate buffer alone, no ozone), the reduction versus water is recorded as 66.92%. Moreover, in data set [8], the “log reduction of Salmonella CFU versus water” value stood at 1 log. Besides, the “log reduction in Klebsiella CFU versus the water control” value in [9] is 1 log.

These data come from patent US20210400981A1, “ANTIMICROBIAL OZONE COMPOSITIONS AND METHODS OF USE THEREOF” (priority 2018, published 2021).
